Experimental data as given in patent publication US6812034B2, “Fetuin-MGP-mineral complex in serum assayed to determine calcification risk” (The Regents of the University of California, priority 2000, dated 2004).
Entries after “also recorded” stand apart in the source; their conditions may differ.

What was measured:
Format in all cases: in vivo, rat
[1] = serum levels of calcium, phosphate, MGP and BGP after subcutaneous bisphosphonate
Procedure: Rats were fed rodent diet 5001 (Purina Mills Inc., St. […] Etidronate was dissolved with 0.15 M NaCl, titrated to pH 7.4 with dilute NaOH, and administered subcutaneously to forty-day-old male rats. Control animals received injections of 0.15 M NaCl only. […] At the times indicated in FIG. 1, each rat was anesthetized with metofane and a 400 μl sample of blood was withdrawn from the jugular vein. Blood samples were allowed to clot for 15 min at room temperature and serum was obtained after centrifugation in a clinical centrifuge and then frozen rapidly on dry ice and stored at -70° C. until later analysis. The same procedure was followed for the second time course experiment (FIG. 10), with the difference that the etidronate dose was increased to 32 mg per 100 g body weight. […] Two hours later, all rats were injected with etidronate at a dose of 8 mg/100 g (t=0), and 400 μl of blood were removed from each animal at the indicated times for biochemical analyses. […] In neither control group could we detect a significant change in serum levels of calcium, phosphate, or MGP at any time point. […] Rice et al. (1994) J. Bone Min. Res. 9: 567-576). Calcium levels in serum and other samples were determined colorimetrically using cresolphthalein complexone (Sigma) and phosphate levels in serum, effluent fractions, and other samples were determined calorimetrically as described (Chen et al. (1956) Anal. Chem. 28(11): 1756-1758). For determination of ionic calcium, freshly obtained blood samples were immediately placed into a 2.5 ml gold top vacutainer tube to avoid out gassing of CO2 and the associated shift in pH. […] Electrophoresis was carried out using 4 to 20% polyacrylamide gels (Novex, Inc., San Diego, Calif.) run in Tris-glycine buffer containing SDS. Protein sequencing was carried out on bands transferred to PVDF membranes using a Procise 494 Sequencer (ABI division, PE Biosystems, Foster City, Calif.).

[2] = test system: aorta calcification in rats treated with vitamin D plus warfarin; experiment: von Kossa staining for calcification in rats treated with vitamin D plus warfarin; conditions: for Histology Score Observer #1 x ± S.D. / Histology Score Observer #2 x ± S.D.: 84 h; for dose that completely eliminated von Kossa staining for mineral in the abdominal aorta: 84 h after first vitamin D
Procedure: (§1) For measurement of mineral accumulation in arteries, each tissue was removed within 30 minutes of death and immediately frozen. Tissues were subsequently washed extensively with buffer and extracted with 1 ml of 10% formic acid for 24 h at room temperature, as described. Calcium levels in serum were determined colorimetrically using cresolphthalein complexone (Sigma) and phosphate levels in serum and in acid tissue extracts were determined calorimetrically as described (Zhu et al. (1994) Cardiology, 85: 370-377). Tissue sectioning and staining were carried out by Biomedical Testing Services, Inc., (San Diego, Calif.).
Male Sprague Dawley rats were fed ad libitum with rodent diet 5001 (Purina Mills Inc., St. Louis, Mo.), a diet that is 0.67% phosphorus and 0.95% calcium by weight. This diet contains 500 μg per kg of phylloquinone and has no added menadione. In all experiments, animals were killed by exsanguination while under metofane anesthetic, and selected tissues were removed immediately and fixed in 10% buffered formalin or frozen at −20° C. for later studies. All animal experiments were approved by the UCSD animal subjects committee.

[3] = weight, tibia length and serum calcium and phosphate in warfarin-treated rats; conditions: for mg Ca dl serum / mg P dl serum: 4 weeks
From the text: This procedure induces artery calcification within 2 weeks without the presence of hypercalcemia.

[4] = test system: warfarin-induced artery calcification; experiment: artery calcification in rats treated with warfarin for 2 or 4 weeks; conditions: both carotid arteries
Procedure: as §1, with “Tissues” for “For measurement of mineral accumulation in arteries, each tissue was removed within 30 minutes of death and immediately frozen. Tissues”, “Calif.). The effect of bisphosphonates on artery calcification was also examined in rats treated with warfarin alone using procedures which have been described elsewhere (Price et al. (1998) Arterioscler. Thromb. Vasc. Biol. 18: 1400-1407).” for “Calif.).”

[5] = serum levels of calcium and phosphate in rats treated with vitamin D plus warfarin; conditions: 84 h; for reduction of serum phosphate: two highest doses
Procedure: as §1, with “Calif.). […]” for “Calif.).”

[6] = Sephacryl S300 gel filtration of serum; conditions: serum 6 h after etidronate, concurrent warfarin
Procedure: The serum mineral complex was characterized by gel filtration using 25 ml columns of Sephacryl S-300 HR which were prepared in disposable plastic pipets and were equilibrated with 20 mM HEPES pH 7.4, 0.15 M NaCl and 10 mM CaCl2 at room temperature. Serum was obtained from rats 6 h after administration of etidronate at a dose of 8 mg/100 g, and 1 ml aliquots were immediately applied to the Sephacryl column. Fractions of 0.5 ml were then collected and analyzed to determine the level of phosphate and MGP (see below).

[7] = test system: vitamin D-induced artery calcification; experiment: mineral phosphate accumulation in acid demineralization extracts of thoracic aorta and carotid arteries, vitamin D plus warfarin; conditions: for Artery Calcification Relative potency: relative to etidronate = 1
Procedure: Tissues were subsequently washed extensively with buffer and extracted with 1 ml of 10% formic acid for 24 h at room temperature, as described. Calcium levels in serum were determined colorimetrically using cresolphthalein complexone (Sigma) and phosphate levels in serum and in acid tissue extracts were determined calorimetrically as described (Zhu et al. (1994) Cardiology, 85: 370-377). Tissue sectioning and staining were carried out by Biomedical Testing Services, Inc., (San Diego, Calif.). The effect of bisphosphonates on artery calcification was first examined in rats in which artery calcification was induced by treatment with warfarin plus high doses of vitamin D. […] All animals were killed by exsanguination at 96 h. […] All animals were killed by exsanguination at 96 h after the first vitamin D dose. […] All animals were killed by exsanguination 96 h after the first vitamin D injection.

[8] = 0.0004 mg P/kg/day sc, score 0-5
[9] = 0.002 mg P/kg/day sc, score 0-5
[10] = 0.010 mg P/kg/day sc, score 0-5
[11] = 0.050 mg P/kg/day sc, score 0-5
[12] = 0.025 mg P/kg/day plus warfarin
[13] = 15.4 mg warfarin per 100 g 2 h before 8 mg/100 g etidronate
[14] = 0.00036 mg P/kg/day sc, score 0-5 (5 most calcified)
[15] = 0.0018 mg P/kg/day sc, score 0-5
[16] = 0.009 mg P/kg/day sc, score 0-5
[17] = 0.045 mg P/kg/day sc, score 0-5

NCCCC(O)(P(=O)(O)O)P(=O)(O)O [Alendronate, (4-amino-1-hydroxybutylidene)bis-phosphonate]
effect on serum calcium, phosphate and MGP levels ([1]; 4 mg/100 g dose, 1, 2, 6, 12 and 24 h, data not shown): no effect
Histology Score Observer #1 x ± S.D. [2, 8]: 2.8 ± 1.0
Histology Score Observer #2 x ± S.D. [2, 8]: 3.3 ± 1.3
Histology Score Observer #1 x ± S.D. [2, 9]: 2.5 ± 0.6
Histology Score Observer #2 x ± S.D. [2, 9]: 2.0 ± 0.8
Histology Score Observer #1 x ± S.D. [2, 10]: 2.0 ± 1.8
Histology Score Observer #2 x ± S.D. [2, 10]: 2.5 ± 1.3
Histology Score Observer #1 x ± S.D. [2, 11]: 0.8 ± 0.5
Histology Score Observer #2 x ± S.D. [2, 11]: 0.4 ± 0.5
Histology Score Observer #1 x ± S.D. ([2]; 0.25 mg P/kg/day sc, score 0-5): 0.0 ± 0.0
Histology Score Observer #2 x ± S.D. ([2]; 0.25 mg P/kg/day sc, score 0-5): 0.0 ± 0.0
dose that completely eliminated von Kossa staining for mineral in the abdominal aorta [2]: 0.25 mg P/kg/day
mg Ca dl serum [3, 12]: 10.0 ± 0.1 mg/dL
mg P dl serum [3, 12]: 10.0 ± 0.1 mg/dL
mg Ca dl serum ([3]; 0.25 mg P/kg/day plus warfarin): 10.8 ± 0.1 mg/dL
mg P dl serum ([3]; 0.25 mg P/kg/day plus warfarin): 10.9 ± 0.7 mg/dL
effect on bone growth or weight gain ([3]; 0.025 and 0.25 mg P/kg/day, warfarin 4 weeks): without affecting bone growth or weight gain
nmol PO4 Carotid [4, 12]: 374.0 ± 217.4 nmol
nmol PO4 Carotid ([4]; 0.25 mg P/kg/day plus warfarin): 63.7 ± 43.1 nmol
Serum Ca ([5]; 0.0004 mg P/kg/day): 13.3 ± 0.7 mg/dL
Serum P ([5]; 0.0004 mg P/kg/day): 10.8 ± 1.2 mg/dL
Serum P ([5]; 0.002 mg P/kg/day): 10.2 ± 0.6 mg/dL
Serum Ca ([5]; 0.01 mg P/kg/day): 15.9 ± 0.4 mg/dL
Serum P ([5]; 0.01 mg P/kg/day): 10.0 ± 0.9 mg/dL
Serum P ([5]; 0.05 mg P/kg/day): 9.9 ± 0.5 mg/dL
Serum P ([5]; 0.25 mg P/kg/day): 9.5 ± 0.7 mg/dL
reduction of serum phosphate [5]: about 16%

CC(=O)CC(c1ccccc1)c1c(O)c2ccccc2oc1=O (centres unmarked) [warfarin]
effect on the increase in serum MGP following etidronate [1, 13]: prevents the increase in serum MGP; also recorded: blocked the increase in serum MGP
effect on the time course of the elevation in serum calcium and phosphate following etidronate [1, 13]: did not affect
effect on serum levels of MGP ([1]; animals which did not receive etidronate): no effect
MGP levels in the high molecular weight position, of the level in vitamin K-replete, etidronate treated rats [6]: 5%
phosphate levels in the high molecular weight, excluded volume position vs vitamin K-replete, etidronate treated rats [6]: comparable

CCCCCN(C)CCC(O)(P(=O)(O)O)P(=O)(O)O [Ibandronate, (1-hydroxy-3-(methylpentylamino)propylidene)bis-phosphonate]
dose required to reduce the extent of mineralization by half in the thoracic aorta ([7]; 84 h, FIG. 3): 0.0002 mg P/kg/day
dose required to reduce the extent of mineralization by half in the carotid artery ([7]; 84 h, FIG. 4): 0.00018 mg P/kg/day
Artery Calcification Dose for 50% inhibition ([7]; daily subcutaneous dose, vitamin D-induced artery calcification, male rats initially 200 g): 0.00019 mg P/kg/day
subcutaneous dose required for 50% inhibition of artery calcification ([7]; rat, FIGS. 3 and 4): 0.2 μg P/kg/day
Artery Calcification Relative potency [7]: 10500
Artery Calcification Relative potency ([7]; listed as ibandronate): 10,500
Histology Score Observer #1 x ± S.D. [2, 14]: 1.0 ± 0.8
Histology Score Observer #2 x ± S.D. [2, 14]: 1.0 ± 0.8
Histology Score Observer #1 x ± S.D. [2, 15]: 0.0 ± 0.0
Histology Score Observer #2 x ± S.D. [2, 15]: 0.0 ± 0.0
Histology Score Observer #1 x ± S.D. [2, 16]: 0.0 ± 0.0
Histology Score Observer #2 x ± S.D. [2, 16]: 0.0 ± 0.0
Histology Score Observer #1 x ± S.D. [2, 17]: 0.0 ± 0.0
Histology Score Observer #2 x ± S.D. [2, 17]: 0.0 ± 0.0
dose that completely eliminated von Kossa staining for mineral in the abdominal aorta [2]: ≥ 0.0018 mg P/kg/day
Serum Ca ([5]; 0.00036 mg P/kg/day): 13.8 ± 0.6 mg/dL
Serum P ([5]; 0.00036 mg P/kg/day): 9.9 ± 0.5 mg/dL
Serum Ca ([5]; 0.0018 mg P/kg/day): 15.5 ± 0.9 mg/dL
Serum P ([5]; 0.0018 mg P/kg/day): 10.3 ± 0.6 mg/dL
Serum Ca ([5]; 0.009 mg P/kg/day): 14.9 ± 0.6 mg/dL
Serum P ([5]; 0.009 mg P/kg/day): 10.4 ± 0.7 mg/dL
Serum Ca ([5]; 0.045 mg P/kg/day): 15.4 ± 0.3 mg/dL
Serum P ([5]; 0.045 mg P/kg/day): 9.9 ± 0.4 mg/dL
reduction of serum phosphate [5]: ~11%
